Measured values published in PubChem BioAssay AID248 (DTP/NCI, 2004).
Values joined by “and” are separate entries in the source; they are usually repeats but may differ in a detail not shown here. Equal values may be shown once. Inconclusive results and toxic doses are left out. Cut-off read from the data, not from the text of the source: active = T/C of 150% or more; inactive = T/C below 125%.

Test system: L1210 leukemia ip in BDF1 mice, survival T/C
Test: NCI In Vivo Anticancer Drug Screen. Data for tumor model L1210 Leukemia (intraperitoneal) in B6D2F1 (BDF1) mice
Conditions: endpoint: mean survival time, higher = longer survival
Method in brief: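 Value reflects the ratio of survival in compound-treated mice to survival in vehicle-treated controls, with both groups carrying the same transplanted tumor.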

[1] = dose: 100.0 mg/kg/injection, schedule: Q01DX001 (ip), vehicle: Klucel (hydroxypropylcellulose) (HPC)
[2] = dose: 50.0 mg/kg/injection, schedule: Q01DX009 (ip), vehicle: saline with Tween-80
[3] = dose: 100.0 mg/kg/injection, schedule: Q01DX009 (ip), vehicle: saline with Tween-80
[4] = dose: 100.0 mg/kg/injection, schedule: Q04DX003 (ip), vehicle: saline with Tween-80
[5] = dose: 200.0 mg/kg/injection, schedule: Q04DX003 (ip), vehicle: saline with Tween-80
[6] = dose: 400.0 mg/kg/injection, schedule: Q04DX003 (ip), vehicle: saline with Tween-80

Measured: T/C

Br[CH2][Sn]([Br])([Br])[CH2]Br
inactive: dose: 6.25 mg/kg/injection, schedule: Q04DX002 (ip), vehicle: saline with Tween-80 101 % of control | dose: 12.5 mg/kg/injection, schedule: Q04DX002 (ip), vehicle: saline with Tween-80 101 % of control | dose: 25.0 mg/kg/injection, schedule: Q04DX002 (ip), vehicle: saline with Tween-80 116 % of control

Cc1cc(N(CCOS(C)(=O)=O)CCOS(C)(=O)=O)ccc1C=Nc1cccc(Cl)c1
inactive: dose: 20.0 mg/kg/injection, schedule: Q04DX003 (ip), vehicle: Klucel (hydroxypropylcellulose) (HPC) 107 % of control | dose: 40.0 mg/kg/injection, schedule: Q04DX003 (ip), vehicle: Klucel (hydroxypropylcellulose) (HPC) 115 % of control | dose: 80.0 mg/kg/injection, schedule: Q04DX003 (ip), vehicle: Klucel (hydroxypropylcellulose) (HPC) 107 % of control | dose: 100.0 mg/kg/injection, schedule: Q04DX003 (ip), vehicle: Klucel (hydroxypropylcellulose) (HPC) 120 % of control

CC(=O)Nc1ccc(C)cc1
inactive: [1] 94 % of control | dose: 200.0 mg/kg/injection, schedule: Q01DX001 (ip), vehicle: Klucel (hydroxypropylcellulose) (HPC) 102 % of control | dose: 400.0 mg/kg/injection, schedule: Q01DX001 (ip), vehicle: Klucel (hydroxypropylcellulose) (HPC) 91 % of control

c1ccc(-c2nnnn2-c2ccccc2)cc1
inactive: dose: 100.0 mg/kg/injection, schedule: Q01DX001 (ip), vehicle: saline with Tween-80 102 % of control | dose: 200.0 mg/kg/injection, schedule: Q01DX001 (ip), vehicle: saline with Tween-80 98 % of control | dose: 400.0 mg/kg/injection, schedule: Q01DX001 (ip), vehicle: saline with Tween-80 105 % of control

CC1(C)N=C(N)N=C(N)N1CCc1ccccc1
inactive: dose: 25.0 mg/kg/injection, schedule: Q01DX001 (ip), vehicle: saline with Tween-80 101 % of control | dose: 50.0 mg/kg/injection, schedule: Q01DX001 (ip), vehicle: saline with Tween-80 104 % of control

CCCCCCCCCCCCCCCC(=O)Nc1ccc(Cl)cc1
inactive: dose: 100.0 mg/kg/injection, schedule: Q04DX002 (ip), vehicle: saline with Tween-80 94 % of control | dose: 200.0 mg/kg/injection, schedule: Q04DX002 (ip), vehicle: saline with Tween-80 94 % of control | dose: 400.0 mg/kg/injection, schedule: Q04DX002 (ip), vehicle: saline with Tween-80 97 % of control

O=[N+]([O-])c1cccc(N(c2ccccc2)c2ccccc2)c1
inactive: dose: 100.0 mg/kg/injection, schedule: Q01DX001 (ip), vehicle: carboxymethylcellulose (CMC) 108 % of control | dose: 200.0 mg/kg/injection, schedule: Q01DX001 (ip), vehicle: carboxymethylcellulose (CMC) 108 % of control | dose: 400.0 mg/kg/injection, schedule: Q01DX001 (ip), vehicle: carboxymethylcellulose (CMC) 100 % of control

C=C(C)COB(OCC(=C)C)OCC(=C)C
inactive: dose: 25.0 mg/kg/injection, schedule: Q01DX009 (ip), vehicle: saline with Tween-80 100 % of control | [2] 105 % of control | [3] 94 % of control

COC1C(O)C(C)OC(O[C@@H]2C[C@H]3CC[C@@H]4[C@H](CC[C@]5(C)[C@@H](C6=CC(=O)OC6)CC[C@]45O)[C@@]3(C)[C@H](O)C2)C1O (stereo partly specified)
inactive: dose: 0.63 mg/kg/injection, schedule: Q01DX001 (ip), vehicle: saline 103 % of control | dose: 1.25 mg/kg/injection, schedule: Q01DX001 (ip), vehicle: saline 101 % of control | dose: 2.5 mg/kg/injection, schedule: Q01DX001 (ip), vehicle: saline 97 % of control | dose: 5.0 mg/kg/injection, schedule: Q01DX001 (ip), vehicle: saline 94 % of control | dose: 10.0 mg/kg/injection, schedule: Q01DX001 (ip), vehicle: saline 103 % of control | dose: 20.0 mg/kg/injection, schedule: Q01DX001 (ip), vehicle: saline 106 % of control | dose: 40.0 mg/kg/injection, schedule: Q01DX001 (ip), vehicle: saline 111 % of control | dose: 80.0 mg/kg/injection, schedule: Q01DX001 (ip), vehicle: saline 101 % of control

CC(=O)OC1CC2c3ccccc3C1c1cccc[n+]12 (stereo unspecified)
inactive: dose: 12.5 mg/kg/injection, schedule: Q01DX001 (ip), vehicle: Klucel (hydroxypropylcellulose) (HPC) 97 % of control | dose: 12.5 mg/kg/injection, schedule: Q01DX009 (ip), vehicle: Klucel (hydroxypropylcellulose) (HPC) 100 % of control | dose: 25.0 mg/kg/injection, schedule: Q01DX001 (ip), vehicle: Klucel (hydroxypropylcellulose) (HPC) 101 % of control | dose: 25.0 mg/kg/injection, schedule: Q01DX009 (ip), vehicle: Klucel (hydroxypropylcellulose) (HPC) 102 % of control | dose: 25.0 mg/kg/injection, schedule: Q04DX003 (ip), vehicle: Klucel (hydroxypropylcellulose) (HPC) 101 % of control | dose: 50.0 mg/kg/injection, schedule: Q01DX001 (ip), vehicle: Klucel (hydroxypropylcellulose) (HPC) 105 % of control | dose: 50.0 mg/kg/injection, schedule: Q01DX009 (ip), vehicle: Klucel (hydroxypropylcellulose) (HPC) 104 % of control | dose: 50.0 mg/kg/injection, schedule: Q04DX003 (ip), vehicle: Klucel (hydroxypropylcellulose) (HPC) 94 % of control | dose: 75.0 mg/kg/injection, schedule: Q01DX009 (ip), vehicle: Klucel (hydroxypropylcellulose) (HPC) 88 % of control | [1] 101 % of control

CC(C(c1ccccc1)c1ccc(Cl)cc1)[N+](=O)[O-] (stereo unspecified)
inactive: dose: 22.0 mg/kg/injection, schedule: Q01DX009 (ip), vehicle: saline with Tween-80 102 % of control | dose: 33.0 mg/kg/injection, schedule: Q01DX009 (ip), vehicle: saline with Tween-80 96 % of control | [2] 94 % of control | dose: 75.0 mg/kg/injection, schedule: Q01DX009 (ip), vehicle: saline with Tween-80 112 % of control | dose: 100.0 mg/kg/injection, schedule: Q01DX001 (ip), vehicle: saline 87 % of control | [3] 103 % of control | [4] 95 % of control | dose: 100.0 mg/kg/injection, schedule: Q04DX003 (ip), vehicle: saline 102 % of control | dose: 200.0 mg/kg/injection, schedule: Q01DX001 (ip), vehicle: saline 95 % of control | [5] 102 % of control | dose: 200.0 mg/kg/injection, schedule: Q04DX003 (ip), vehicle: saline 89 % of control | dose: 400.0 mg/kg/injection, schedule: Q01DX001 (ip), vehicle: saline 88 % of control

CN1CCN(C(=O)Nc2cccc(Cl)c2Cl)CC1
inactive: dose: 25.0 mg/kg/injection, schedule: Q01DX009 (ip), vehicle: saline 92 % of control | dose: 50.0 mg/kg/injection, schedule: Q01DX009 (ip), vehicle: saline 87 % of control | dose: 100.0 mg/kg/injection, schedule: Q01DX009 (ip), vehicle: saline 97 % of control and 102 % of control

Nc1nc2nsnc2nc1N
inactive: dose: 3.12 mg/kg/injection, schedule: Q01DX009 (ip), vehicle: water 86 % of control | dose: 6.25 mg/kg/injection, schedule: Q01DX009 (ip), vehicle: water 93 % of control | dose: 12.5 mg/kg/injection, schedule: Q01DX009 (ip), vehicle: water 90 % of control | dose: 25.0 mg/kg/injection, schedule: Q01DX009 (ip), vehicle: water 98 % of control and 106 % of control | dose: 50.0 mg/kg/injection, schedule: Q01DX009 (ip), vehicle: water 97 % of control and 91 % of control

NC(=O)N/N=C/C(c1ccccc1)c1ccccc1
inactive: [4] 96 % of control | [5] 94 % of control | [6] 103 % of control

C[N+](C)(CC(=O)Nc1ccc(Cl)c(Cl)c1)CC(=O)c1ccc(Cl)c(Cl)c1
inactive: [4] 100 % of control | [5] 100 % of control | [6] 102 % of control

CCCCS(=O)(=O)Oc1ccc(N)c([N+](=O)[O-])c1
inactive: [4] 101 % of control | [5] 101 % of control | [6] 88 % of control
